# pIC50: −log10 of the molar value.
# What was measured:
# [1] = biological target: Proto-oncogene tyrosine-protein kinase Src (Homo sapiens, UniProt P12931); experiment: Inhibition of Src activity; assay type: functional
# [2] = biological target: Proto-oncogene tyrosine-protein kinase Src (Rattus norvegicus, UniProt Q9WUD9); experiment: Inhibition of Src in rat fibroblasts
# [3] = biological target: Epidermal growth factor receptor (Homo sapiens, UniProt P00533)
# [4] = biological target: RAC-alpha serine/threonine-protein kinase (Homo sapiens, UniProt P31749); experiment: Inhibition of AKT
# RAC-alpha serine/threonine-protein kinase, sequence (P31749 whole entry): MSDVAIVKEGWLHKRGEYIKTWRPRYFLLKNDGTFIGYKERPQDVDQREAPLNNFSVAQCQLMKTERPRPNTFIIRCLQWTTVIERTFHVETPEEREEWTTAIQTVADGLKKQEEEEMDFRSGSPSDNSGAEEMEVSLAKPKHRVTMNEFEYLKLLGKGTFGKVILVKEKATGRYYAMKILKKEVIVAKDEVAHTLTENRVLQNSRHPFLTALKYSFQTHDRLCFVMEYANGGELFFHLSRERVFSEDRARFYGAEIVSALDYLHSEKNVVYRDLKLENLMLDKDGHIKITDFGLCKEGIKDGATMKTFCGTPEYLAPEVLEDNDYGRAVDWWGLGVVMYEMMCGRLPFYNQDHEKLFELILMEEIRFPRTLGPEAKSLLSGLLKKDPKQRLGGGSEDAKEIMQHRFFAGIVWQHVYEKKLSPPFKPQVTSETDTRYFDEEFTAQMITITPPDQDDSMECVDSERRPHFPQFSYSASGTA
# [5] = biological target: Cyclin-dependent kinase 4 (Homo sapiens, UniProt P11802); experiment: Inhibition of CDK4
# Cyclin-dependent kinase 4, sequence (P11802 whole entry): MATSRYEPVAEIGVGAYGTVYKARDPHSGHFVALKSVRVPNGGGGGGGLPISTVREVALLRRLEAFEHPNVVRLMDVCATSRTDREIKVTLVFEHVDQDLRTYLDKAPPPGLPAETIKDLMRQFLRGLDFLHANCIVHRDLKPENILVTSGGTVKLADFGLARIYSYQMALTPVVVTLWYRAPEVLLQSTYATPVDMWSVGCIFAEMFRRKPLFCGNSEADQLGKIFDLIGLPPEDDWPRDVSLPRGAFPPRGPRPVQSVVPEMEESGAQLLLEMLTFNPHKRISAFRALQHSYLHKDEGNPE
# [6] = Inhibition of IGFR; parameters: species or system Homo sapiens
# [7] = Solubility at pH 4.5; assay type: physicochemical; details: buffer
# [8] = Solubility at neutral pH; assay type: physicochemical
# [9] = Permeability across artificial membrane by PAMPA; assay type: ADME; details: read-out: permeability
# [10] = biological target: Vascular endothelial growth factor receptor 2 (Homo sapiens, UniProt P35968); experiment: Inhibition of KDR
# Vascular endothelial growth factor receptor 2, sequence (P35968 whole entry): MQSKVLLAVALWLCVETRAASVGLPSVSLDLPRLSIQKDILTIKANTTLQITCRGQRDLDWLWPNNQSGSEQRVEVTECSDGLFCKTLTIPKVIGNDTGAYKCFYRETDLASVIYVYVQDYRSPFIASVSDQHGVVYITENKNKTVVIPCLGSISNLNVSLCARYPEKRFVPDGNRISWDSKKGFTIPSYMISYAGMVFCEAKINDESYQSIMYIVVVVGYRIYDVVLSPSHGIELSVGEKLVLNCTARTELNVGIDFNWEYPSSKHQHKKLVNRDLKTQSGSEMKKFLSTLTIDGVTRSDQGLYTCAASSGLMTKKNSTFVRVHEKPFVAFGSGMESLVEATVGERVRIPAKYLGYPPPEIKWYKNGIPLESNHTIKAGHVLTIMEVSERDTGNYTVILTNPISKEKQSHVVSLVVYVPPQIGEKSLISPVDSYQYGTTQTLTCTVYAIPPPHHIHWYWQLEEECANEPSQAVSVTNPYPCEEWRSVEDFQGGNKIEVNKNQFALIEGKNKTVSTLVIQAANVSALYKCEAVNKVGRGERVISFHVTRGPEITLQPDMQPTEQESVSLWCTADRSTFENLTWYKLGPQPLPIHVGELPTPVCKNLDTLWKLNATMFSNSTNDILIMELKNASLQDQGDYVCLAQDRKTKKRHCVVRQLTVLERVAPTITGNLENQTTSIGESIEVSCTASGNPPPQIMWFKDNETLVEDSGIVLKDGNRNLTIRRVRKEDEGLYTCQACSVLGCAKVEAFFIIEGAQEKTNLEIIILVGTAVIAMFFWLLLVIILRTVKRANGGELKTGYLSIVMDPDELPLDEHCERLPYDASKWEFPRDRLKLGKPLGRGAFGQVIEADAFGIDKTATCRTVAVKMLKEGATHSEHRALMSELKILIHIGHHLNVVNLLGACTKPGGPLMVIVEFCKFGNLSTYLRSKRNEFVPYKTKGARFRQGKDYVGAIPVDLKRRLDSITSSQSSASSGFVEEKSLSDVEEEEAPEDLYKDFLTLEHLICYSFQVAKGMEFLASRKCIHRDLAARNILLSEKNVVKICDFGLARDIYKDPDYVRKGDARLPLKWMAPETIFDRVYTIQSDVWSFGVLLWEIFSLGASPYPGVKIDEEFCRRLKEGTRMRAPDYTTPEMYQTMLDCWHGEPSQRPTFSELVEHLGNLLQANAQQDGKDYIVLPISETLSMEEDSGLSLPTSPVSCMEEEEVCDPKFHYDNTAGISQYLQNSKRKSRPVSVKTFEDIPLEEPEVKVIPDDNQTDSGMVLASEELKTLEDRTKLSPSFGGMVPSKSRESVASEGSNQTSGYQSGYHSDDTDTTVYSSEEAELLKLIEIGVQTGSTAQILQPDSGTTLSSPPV
# Proto-oncogene tyrosine-protein kinase Src (Homo sapiens, UniProt P12931), sequence (P12931 2-536 limits assumed): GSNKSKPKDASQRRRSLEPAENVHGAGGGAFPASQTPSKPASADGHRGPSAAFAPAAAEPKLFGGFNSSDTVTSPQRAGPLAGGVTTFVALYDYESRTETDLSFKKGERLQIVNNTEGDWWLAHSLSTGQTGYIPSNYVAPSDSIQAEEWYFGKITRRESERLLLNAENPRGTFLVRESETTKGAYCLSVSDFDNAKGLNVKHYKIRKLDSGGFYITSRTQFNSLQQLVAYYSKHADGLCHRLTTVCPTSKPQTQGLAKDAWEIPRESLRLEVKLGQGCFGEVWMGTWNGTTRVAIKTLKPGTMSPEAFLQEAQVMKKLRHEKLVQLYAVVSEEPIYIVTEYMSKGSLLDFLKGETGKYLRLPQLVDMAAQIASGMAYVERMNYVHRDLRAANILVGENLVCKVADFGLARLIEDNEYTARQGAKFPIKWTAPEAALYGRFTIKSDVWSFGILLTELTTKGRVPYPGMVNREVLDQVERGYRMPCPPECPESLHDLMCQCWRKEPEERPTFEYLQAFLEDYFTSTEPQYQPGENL
# Proto-oncogene tyrosine-protein kinase Src (Rattus norvegicus, UniProt Q9WUD9), sequence (Q9WUD9 2-536 limits assumed): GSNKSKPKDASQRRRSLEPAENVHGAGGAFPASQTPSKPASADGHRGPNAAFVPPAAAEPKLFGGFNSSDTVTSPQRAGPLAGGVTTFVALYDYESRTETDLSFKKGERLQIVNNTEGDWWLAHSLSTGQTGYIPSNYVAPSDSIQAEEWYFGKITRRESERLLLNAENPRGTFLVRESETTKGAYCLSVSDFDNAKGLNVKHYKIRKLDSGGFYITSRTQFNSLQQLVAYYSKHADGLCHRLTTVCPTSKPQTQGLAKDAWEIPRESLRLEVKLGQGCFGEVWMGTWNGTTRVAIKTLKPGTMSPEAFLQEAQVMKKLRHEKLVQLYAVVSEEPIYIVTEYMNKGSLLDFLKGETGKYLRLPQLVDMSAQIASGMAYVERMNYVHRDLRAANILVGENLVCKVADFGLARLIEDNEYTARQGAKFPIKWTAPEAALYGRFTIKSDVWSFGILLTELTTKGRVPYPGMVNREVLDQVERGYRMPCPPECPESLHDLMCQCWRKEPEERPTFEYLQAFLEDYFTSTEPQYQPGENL
# Epidermal growth factor receptor, sequence (P00533 whole entry): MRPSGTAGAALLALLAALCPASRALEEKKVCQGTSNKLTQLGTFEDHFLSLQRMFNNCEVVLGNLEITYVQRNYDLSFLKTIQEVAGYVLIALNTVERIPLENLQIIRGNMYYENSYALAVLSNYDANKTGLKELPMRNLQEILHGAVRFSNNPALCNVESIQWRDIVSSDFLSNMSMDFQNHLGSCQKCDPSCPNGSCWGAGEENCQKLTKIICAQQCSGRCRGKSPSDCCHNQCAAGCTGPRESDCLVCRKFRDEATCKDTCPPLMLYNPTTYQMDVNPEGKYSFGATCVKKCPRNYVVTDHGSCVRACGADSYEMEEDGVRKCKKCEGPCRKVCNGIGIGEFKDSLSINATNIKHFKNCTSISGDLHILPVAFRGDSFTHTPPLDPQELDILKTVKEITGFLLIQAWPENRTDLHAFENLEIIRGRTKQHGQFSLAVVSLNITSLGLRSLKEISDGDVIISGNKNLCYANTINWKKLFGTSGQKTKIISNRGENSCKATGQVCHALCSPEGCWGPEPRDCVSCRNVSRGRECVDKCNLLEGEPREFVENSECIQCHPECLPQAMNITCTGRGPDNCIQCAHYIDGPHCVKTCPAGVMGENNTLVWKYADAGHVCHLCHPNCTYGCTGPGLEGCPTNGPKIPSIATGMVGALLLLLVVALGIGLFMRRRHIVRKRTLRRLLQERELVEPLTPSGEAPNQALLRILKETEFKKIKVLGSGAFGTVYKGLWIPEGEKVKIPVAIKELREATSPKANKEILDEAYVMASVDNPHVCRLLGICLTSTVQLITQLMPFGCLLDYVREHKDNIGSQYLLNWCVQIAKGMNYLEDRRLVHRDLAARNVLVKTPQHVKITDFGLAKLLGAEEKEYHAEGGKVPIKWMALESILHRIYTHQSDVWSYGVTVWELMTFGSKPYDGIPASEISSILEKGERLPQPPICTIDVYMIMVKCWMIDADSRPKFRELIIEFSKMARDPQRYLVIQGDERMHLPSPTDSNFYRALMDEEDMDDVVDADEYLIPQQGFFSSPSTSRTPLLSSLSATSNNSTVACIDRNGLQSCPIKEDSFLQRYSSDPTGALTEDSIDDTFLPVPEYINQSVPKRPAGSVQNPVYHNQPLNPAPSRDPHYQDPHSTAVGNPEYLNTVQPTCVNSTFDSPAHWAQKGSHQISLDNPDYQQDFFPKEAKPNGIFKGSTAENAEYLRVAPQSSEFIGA
SMILES,pIC50 [1],pIC50 [2],further results
COc1cc(Nc2c(C#N)cnc3cc(C#CCCN(C)C)c(OC)cc23)c(Cl)cc1Cl,8.31,6.60,–
COc1cc(Nc2c(C#N)cnc3cc(C#CCCN4CCN(C)CC4)ccc23)cc(OC)c1OC,6.66,5.68,–
COc1cc(Nc2c(C#N)cnc3cc(C#CCN4CCN(C)CC4)c(OC)cc23)c(Cl)cc1Cl,7.96,6.13,–
COc1cc(Nc2c(C#N)cnc3cc(C#CCCN4CCN(C)CC4)ccc23)c(Cl)cc1Cl,7.55,5.77,–
COc1cc2c(Nc3ccc(Cl)cc3Cl)c(C#N)cnc2cc1C#CCCN1CCN(C)CC1,8.06,6.37,–

# Further molecules by rising pIC50 [2], results first:
pIC50 [1],pIC50 [2],SMILES,further results
6.64,5.41,COc1cc(Nc2c(C#N)cnc3ccc(C#CCCN4CCN(C)CC4)cc23)c(Cl)cc1Cl,–
7.68,6.23,COc1cc2c(Nc3cc(OC)c(OC)c(OC)c3)c(C#N)cnc2cc1C#CCCN1CCN(C)CC1,–
8.27,6.28,COc1cc(Nc2c(C#N)cnc3cc(C#CCCN4CCNCC4)c(OC)cc23)c(Cl)cc1Cl,–
–,6.72,COc1cc(Nc2c(C#N)cnc3cc(C#CCCN4CCOCC4)c(OC)cc23)c(Cl)cc1Cl,–
8.39,6.89,CCOc1cc2c(Nc3cc(OC)c(Cl)cc3Cl)c(C#N)cnc2cc1C#CCCN1CCN(C)CC1,–
8.41,7.14,COc1cc(Nc2c(C#N)cnc3cc(C#CCCN4CCN(C)CC4)c(OC)cc23)c(Cl)cc1Cl,pIC50 [3]: 6.14; pIC50 [4]: < 5.30; pIC50 [5]: < 5.30; pIC50 [6]: < 5.30; solubility [7]: > 100 µg/mL; solubility [8]: 5 µg/mL; Papp [9]: 6.8 ×10⁻⁶ cm/s; pIC50 [10]: < 5.30

# Reference: ChEMBL document CHEMBL1139073, “Inhibition of Src kinase activity by 7-ethynyl-4-phenylamino-3-quinolinecarbonitriles: identification of SKS-927” (Bioorg Med Chem Lett, 2007)
